Literature values as cited in US10736894B2, “Methods of treating developmental syndromes with PDE10A inhibitors” (Ovid Therapeutics Inc., priority 2018, dated 2020).

Key:
[1] = 100 mg dose
[2] = single dose 3-1000 mg, volunteers

## COc1cn(-c2ccc(-n3cccn3)cc2F)nc(-c2ccnn2-c2ccccc2)c1=O [1-[2-fluoro-4-(1H-pyrazol-1-yl)phenyl]-5-methoxy-3-(1-phenyl-1H-pyrazol-5-yl)-pyridazin-4(1H)-one]
All dose cohorts 3-1000 mg
  deaths, serious adverse events, discontinuations due to adverse events: no deaths, serious adverse events, or discontinuations due to adverse events
[2]
  drug-related adverse event: orthostatic hypotension: 9.1%
  drug-related adverse event: orthostatic tachycardia: 19.7%
  drug-related adverse event: somnolence: 33.3%
[1]; fed conditions versus fasting
  oral bioavailability: increased oral bioavailability
[1]; fed conditions
  Tmax: 6 h
